Among the test systems are OVCAR-5 ovarian; M19-MEL melanoma; IGROV1 ovarian; SNB-19 CNS; 786-0 renal; SK-MEL-28 melanoma; HOP-62 NSCLC; EKVX NSCLC; MALME-3M melanoma; SNB-78 CNS.
Holding throughout (assay): growth of human tumour cells (NCI), 48 h

Several values for one entry are separate records, joined by “and”; a condition that tells them apart may be missing. Equal values may be shown once.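 96-well plates; 48 h exposure; 5 concentrations. Endpoints by linear interpolation between flanking doses. Not reached: highest tested concentration assigned. GI50 = concentration required for 50% inhibition of growth. TGI denotes the concentration required for complete inhibition of growth.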

Take `c1ccc(P(=C2c3ccccc3-c3ccccc32)(c2ccccc2)c2ccccc2)cc1`: the TGI with OVCAR-5 ovarian is 48.3 µM; with M19-MEL melanoma, 20.3 µM; in the assay with IGROV1 ovarian, greater than 100 µM; with SNB-19 CNS it was greater than 100 µM; with 786-0 renal, 34 µM; in the assay on SK-MEL-28 melanoma, 20.2 µM. The TGI in the assay on HOP-62 NSCLC was 8.17 µM; in the assay with EKVX NSCLC, 61.3 µM.

Consider `COc1cccc(/C(C)=N/NC(=O)CSc2nc3ccccc3c(=O)n2CCc2ccc(S(N)(=O)=O)cc2)c1`, for which the GI50 in the assay on OVCAR-5 ovarian was 3.36 µM; in the assay with IGROV1 ovarian, 5.09 µM; in the assay on SNB-19 CNS it was 2.89 µM; in the assay on 786-0 renal it was 1.47 µM; with SK-MEL-28 melanoma it was 10.8 µM; in the assay with HOP-62 NSCLC, 2.81 µM. Besides, the GI50 in the assay with MALME-3M melanoma is 1.98 µM; in the assay with EKVX NSCLC, 5.81 µM. In addition, the TGI in the assay with OVCAR-5 ovarian is 21 µM; in the assay with IGROV1 ovarian, 24.4 µM; with SNB-19 CNS, 7.87 µM; in the assay with 786-0 renal, 3.95 µM; with SK-MEL-28 melanoma, 38.7 µM; in the assay on HOP-62 NSCLC, 9.63 µM. The TGI amounted to 4.62 µM in the assay on MALME-3M melanoma and 33.9 µM in the assay with EKVX NSCLC.

For `CCOc1ccc(O)cc1[P+](c1ccccc1)(c1ccccc1)c1ccccc1`, the TGI in the assay with OVCAR-5 ovarian turned out to be 13.1 µM; in the assay with M19-MEL melanoma, 15.3 µM; in the assay on SNB-19 CNS it was 24.5 µM; in the assay on 786-0 renal, 20.2 µM; in the assay with SNB-78 CNS, 84.8 µM; in the assay on SK-MEL-28 melanoma, 22.6 µM. For the same compound, the TGI in the assay with HOP-62 NSCLC was 28.9 µM; with MALME-3M melanoma, 20.1 µM; with EKVX NSCLC, 24.2 µM.

For the compound `CN1CCN(CCOc2cc(OC3CCOCC3)c3c(Nc4c(Cl)ccc5c4OCO5)ncnc3c2)CC1`, the GI50 with OVCAR-5 ovarian was 1.13 µM and 1.35 µM; with IGROV1 ovarian it was 0.244 µM and 0.204 µM; in the assay on SNB-19 CNS it was 12.1 µM and > 10 µM; in the assay on 786-0 renal, 4.47 µM and > 10 µM; in the assay with SK-MEL-28 melanoma it was 13.6 µM and > 10 µM; with HOP-62 NSCLC, 5.48 µM and 8.53 µM. The GI50 is 14.1 µM and > 10 µM in the assay with MALME-3M melanoma; 1.04 µM and 0.732 µM in the assay on EKVX NSCLC. In addition, the TGI is 23.9 µM and > 10 µM in the assay with OVCAR-5 ovarian; 2.72 µM and 3.05 µM in the assay on IGROV1 ovarian; greater than 100 µM in the assay on SNB-19 CNS; 24.1 µM and > 10 µM in the assay with 786-0 renal; 27.2 µM and > 10 µM with SK-MEL-28 melanoma; 26.7 µM and > 10 µM in the assay with HOP-62 NSCLC. For the same compound, the TGI in the assay on MALME-3M melanoma was 30.1 µM and > 10 µM; in the assay on EKVX NSCLC, 57.6 µM and > 10 µM.

Take `COC1C2c3cc4c(cc3CC(C#N)(c3ccccc32)N1C(=O)c1ccccc1)OCO4` (stereo unspecified): the TGI in the assay on OVCAR-5 ovarian, with IGROV1 ovarian, in the assay on SNB-19 CNS, in the assay on 786-0 renal, in the assay on SNB-78 CNS and with SK-MEL-28 melanoma was greater than 100 µM each time. Further, the TGI with HOP-62 NSCLC, in the assay with MALME-3M melanoma and with EKVX NSCLC was greater than 100 µM in each case.

Consider `NC(=Nc1ccc(N)cc1)C(N)=Nc1ccc(N)cc1`, for which the GI50 in the assay on OVCAR-5 ovarian was greater than 100 µM; in the assay with IGROV1 ovarian, 79.1 µM; in the assay on SNB-19 CNS it was greater than 100 µM; with 786-0 renal, greater than 100 µM; in the assay on SK-MEL-28 melanoma, greater than 100 µM; with HOP-62 NSCLC, greater than 100 µM. Moreover, the results for the GI50 in the assay on MALME-3M melanoma and in the assay with EKVX NSCLC were 45.9 µM and greater than 100 µM, respectively. Moreover, the TGI with OVCAR-5 ovarian, in the assay with IGROV1 ovarian, in the assay with SNB-19 CNS, in the assay on 786-0 renal, in the assay with SK-MEL-28 melanoma and in the assay with HOP-62 NSCLC was greater than 100 µM throughout. Besides, the TGI in the assay on MALME-3M melanoma and with EKVX NSCLC was greater than 100 µM in each case.

For `CCOC(=O)c1cnn2c3ccccc3n(S(=O)(=O)c3ccc(OC)cc3)c12`, the GI50 was 0.558 µM in the assay with OVCAR-5 ovarian; 0.478 µM in the assay on IGROV1 ovarian; 0.712 µM with SNB-19 CNS; 0.666 µM in the assay on 786-0 renal; 5.98 µM with SK-MEL-28 melanoma; 0.523 µM with HOP-62 NSCLC. Besides, the GI50 in the assay on MALME-3M melanoma is 0.598 µM; with EKVX NSCLC, 0.583 µM. Moreover, the TGI in the assay with OVCAR-5 ovarian, in the assay on IGROV1 ovarian, in the assay with SNB-19 CNS, in the assay with 786-0 renal, in the assay with SK-MEL-28 melanoma and with HOP-62 NSCLC was greater than 100 µM throughout. For the same compound, the TGI in the assay on MALME-3M melanoma and with EKVX NSCLC was greater than 100 µM in each case.

Turning to `CCS(=O)(=O)c1ccc(OC)c(Nc2ncc(-c3ccccc3Cl)o2)c1`, the GI50 is 10.9 µM with OVCAR-5 ovarian; 14.4 µM in the assay on IGROV1 ovarian; greater than 21.9 µM in the assay with SNB-19 CNS; greater than 17.4 µM with 786-0 renal; greater than 25 µM in the assay with SK-MEL-28 melanoma; 10.1 µM in the assay with HOP-62 NSCLC. Moreover, the GI50 with MALME-3M melanoma is greater than 25 µM; in the assay on EKVX NSCLC, greater than 21.3 µM. For the same compound, the TGI in the assay on OVCAR-5 ovarian, with IGROV1 ovarian, with SNB-19 CNS, in the assay with 786-0 renal, in the assay with SK-MEL-28 melanoma and with HOP-62 NSCLC was greater than 25 µM each time. Moreover, the TGI with MALME-3M melanoma and in the assay with EKVX NSCLC was greater than 25 µM in each case.

For `Nc1ccccc1C#C/C=C\C#Cc1c(F)c(F)c(F)c(F)c1F`, the GI50 is 53.4 µM in the assay on OVCAR-5 ovarian; 10.9 µM in the assay on IGROV1 ovarian; 26 µM in the assay on SNB-19 CNS; 12.3 µM in the assay with 786-0 renal; 17 µM with SK-MEL-28 melanoma; 12.7 µM in the assay on HOP-62 NSCLC. In addition, the GI50 is 18.6 µM with MALME-3M melanoma and 29.7 µM with EKVX NSCLC. Besides, the TGI in the assay with OVCAR-5 ovarian is greater than 100 µM; with IGROV1 ovarian, 24.5 µM; with SNB-19 CNS it was 55.4 µM; in the assay on 786-0 renal, 30.5 µM; in the assay with SK-MEL-28 melanoma it was 38.4 µM; in the assay with HOP-62 NSCLC it was 27.8 µM. For the same compound, the TGI with MALME-3M melanoma is 40.1 µM; in the assay with EKVX NSCLC, 99.1 µM.

With `COC(=O)/C=c1\s/c(=C\C(=O)OC)c2ccccc12`, the TGI in the assay with OVCAR-5 ovarian, in the assay with M19-MEL melanoma, in the assay with IGROV1 ovarian, with SNB-19 CNS, in the assay on 786-0 renal and in the assay with SNB-78 CNS was greater than 100 µM in each case. In addition, the TGI with SK-MEL-28 melanoma, in the assay with MALME-3M melanoma and in the assay on EKVX NSCLC was greater than 100 µM throughout.

For the origin of these results see PubChem BioAssay (NCI).
